Tests used:
D1R [1] = molecular target: T1, D1R (Homo sapiens, UniProt P21728); test: Binding affinity at dopamine D1R, [3H]SCH23390 radioligand; conditions: for selectivity D1R over D5R: from Ki values
D5R = D5R (Homo sapiens, UniProt P21918); test: Binding affinity at dopamine D5R, [3H]SCH23390 radioligand; conditions: from Ki values
D1R [2] = molecular target: T1, D1R; test: D1R agonist/antagonist assays measuring cAMP modulation; conditions: agonist mode

T1 sequence (P21728 whole entry): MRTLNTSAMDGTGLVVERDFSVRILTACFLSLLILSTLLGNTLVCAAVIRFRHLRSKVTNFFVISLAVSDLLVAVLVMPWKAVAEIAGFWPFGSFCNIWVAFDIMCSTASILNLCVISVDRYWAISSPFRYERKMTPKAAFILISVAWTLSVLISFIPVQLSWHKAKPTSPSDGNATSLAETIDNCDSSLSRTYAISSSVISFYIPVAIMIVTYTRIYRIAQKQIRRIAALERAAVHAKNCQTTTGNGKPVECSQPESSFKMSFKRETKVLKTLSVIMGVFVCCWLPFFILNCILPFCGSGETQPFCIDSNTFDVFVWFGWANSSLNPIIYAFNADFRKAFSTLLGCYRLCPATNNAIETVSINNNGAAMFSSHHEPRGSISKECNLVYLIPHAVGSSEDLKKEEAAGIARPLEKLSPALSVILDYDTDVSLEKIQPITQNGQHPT
D5R, sequence (P21918 whole entry): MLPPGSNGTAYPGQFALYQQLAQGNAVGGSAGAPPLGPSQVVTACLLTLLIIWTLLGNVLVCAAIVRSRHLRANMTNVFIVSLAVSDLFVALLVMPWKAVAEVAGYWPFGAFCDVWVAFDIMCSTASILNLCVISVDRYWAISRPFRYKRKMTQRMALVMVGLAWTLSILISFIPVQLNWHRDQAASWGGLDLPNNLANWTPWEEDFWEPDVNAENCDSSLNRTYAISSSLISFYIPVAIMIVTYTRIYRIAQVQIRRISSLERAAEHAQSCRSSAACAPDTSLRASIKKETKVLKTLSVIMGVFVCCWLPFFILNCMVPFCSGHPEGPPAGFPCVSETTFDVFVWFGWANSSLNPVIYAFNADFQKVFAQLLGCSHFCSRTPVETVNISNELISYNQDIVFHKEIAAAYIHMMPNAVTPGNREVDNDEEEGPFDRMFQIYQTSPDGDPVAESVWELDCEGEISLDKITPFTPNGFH

SMILES	selectivity D1R over D5R (D1R [1])	also measured
COc1cc2c(cc1O)C(c1ccccc1)CNCC2 (stereo not drawn) [Compound 6a]	up to 3 fold	
COc1cc2c(cc1O)C(c1ccccc1Cl)CNCC2 (stereo not drawn) [Compound 6b]	up to 3 fold	
COc1cc2c(cc1O)C(c1c(Cl)cccc1Cl)CNCC2 (stereo not drawn) [Compound 6c]		selectivity D5R over D1R (D5R): 3 fold
COc1cc2c(cc1O)C(c1ccccc1Br)CNCC2 (stereo not drawn) [Compound 6d]	up to 3 fold	
Oc1cc2c(cc1O)C(c1ccccc1Br)CNCC2 (stereo not drawn) [Compound 7]		increase in D1R affinity versus C7 methoxy analog 6d (D1R [1]; catechol 7 compared with 6d): roughly 3 fold
COc1cc2c(cc1O)C(c1ccccc1Cl)CN(C)CC2 (stereo not drawn) [Compound 10a]		agonist activity (D1R [2]): No agonist activity was detected

From paper PMC7340849 (Bioorganic & medicinal chemistry letters, 2020)
